# Measurements: publication PMC4514850, “A Novel TGR5 Activator WB403 Promotes GLP-1 Secretion and Preserves Pancreatic β-Cells in Type 2 Diabetic Mice” (PLoS ONE, 2015)
# Entries after “also recorded” stand apart in the source; their conditions may differ.
# What was measured:
# NCI-H716 cells = assay: active GLP-1 secretion in NCI-H716 cells; assay type: cell-based, human; details: 10 μmol/l, 30 min
# Protocol: Endocrine differentiation was induced by seeding NCI-H716 cells in plates coated with Matrigel (Becton Dickinson). Cells were washed with RPMI-1640 medium without FBS and incubated in the same medium containing indicated compounds at 10 μmol/l. The condition medium was collected after 30 min. GLP-1 secretion in MIN6 or primary enterocytes was conducted similarly. To isolate primary enterocytes, ileum or colon was cut into 2 cm length, rinsed by PBS (pH7.2∼7.4) before dispersed in 10 mmol/l EDTA/PBS (pH7.4) for 15 min at room temperature, followed by pipetting up and down. Enterocytes were collected by filtration through a 70 μm cell strainer. To study the effect of WB403 on GLP-1 secretion in vivo, mice in group of three were fasted overnight and orally received 0, 50, 100 mg/kg of WB403 dispersed in 0.5% CMC with a DPP-4 inhibitor (5 mg/kg). There were 5 animals in each group. 2 g/kg glucose was administrated 30 min later and blood was collected 10 min after glucose challenge.
# The GLP-1 (active) ELISA kit was purchased from Millipore, and insulin ELISA kit was from Mercodia. For quantitative determination of cAMP, a competitive enzyme immunoassay kit from R&D system was used. All immunoassays were performed according to manufacturers’ instructions.
# hGPR120 = target: T1, hGPR120 (Homo sapiens, UniProt Q5NUL3); assay: GPR120-dependent calcium mobilization in transfected 293 cells; assay type: cell-based; details: 10 or 100 μmol/l
# T1 construct: expressed in transfected cells; host or cells: 293 cells, transient transfection with a human GPR120 expression vector
# T1 sequence (Q5NUL3 1-361): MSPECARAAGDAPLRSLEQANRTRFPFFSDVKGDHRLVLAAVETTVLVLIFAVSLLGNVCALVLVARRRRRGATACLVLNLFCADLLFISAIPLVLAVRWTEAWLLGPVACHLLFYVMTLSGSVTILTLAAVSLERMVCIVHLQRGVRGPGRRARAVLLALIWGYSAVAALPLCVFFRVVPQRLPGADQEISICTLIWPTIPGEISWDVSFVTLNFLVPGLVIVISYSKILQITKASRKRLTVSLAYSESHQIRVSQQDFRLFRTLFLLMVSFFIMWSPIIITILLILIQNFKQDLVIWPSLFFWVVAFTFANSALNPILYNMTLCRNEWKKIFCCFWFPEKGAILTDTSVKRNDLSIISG
# Protocol: For human TGR5 luciferase (luc) assay, 293T cells were co-transfected with pCRE-luc, pTGR5 (kind gift from Prof. Johan Auwerx, Ecole Polytechnique Fédérale de Lausanne, Lausanne, Switzerland) and pRenilla (Promega, USA). WB403 was added 5 h later. Cells were harvested after 16 h and subjected to luciferase analysis on Lumistar Optima chemiluminescent detector (BMG labtech, Germany). For cAMP testing, 293T cells transiently transfected with pTGR5 or pGPR119 (GeneCopoeia, USA) were washed by FBS-free DMEM, and stimulated with WB403 in FBS-free DMEM containing 3-isobutyl-1-methyl-xanthine (IBMX, Sigma). Cell lysates were collected 30 min later and used for cAMP ELISA assay. FLIPR Calcium 5 assay kit (Molecular Devices, USA) was used for calcium mobilization assay. 293-GPR40 stable cells (kindly provided by Prof. Naiming Zhou of Zhejiang University, Hanzhou, China) or 293 cells transient transfected with GPR120 were seeded at 50,000 cells per well in black-walled clear-bottomed 96-well plates (Costar). An equal volume of loading buffer containing Fluo 4-AM was added the following day and cells were incubated for 1 h before stimulated with compounds. Increase of the intracellular Ca^2+ concentration was monitored by Flexstation 3 system (Molecular Devices, USA).
# Fig 6 Effect of WB403 on GPCRs related to GLP-1 secretion. (A) GPCR expression in human NCI-H716 and mouse MIN6 cells. […]
smiles,measurement,setting,value
"CCc1cc(-c2nc(C)c(COCc3ccc(Br)cc3)s2)ccn1 [WB403, 4-(5-((4-bromobenzyloxy)-methyl)-4-methylthiazol-2-yl)-2-ethylpyridine]",GLP-1 stimulation in NCI-H716 cells,NCI-H716 cells,much higher GLP-1 stimulation capacity; also recorded: outstanding effect in GLP-1 stimulation
same,hGPR120-Ca2+ activation (calcium mobilization),hGPR120,neither did it exhibit significant effect; also recorded: no significant effect
